Reference: ChEMBL document CHEMBL3603752, “Discovery of N-(4-aryl-5-aryloxy-thiazol-2-yl)-amides as potent RORγt inverse agonists” (Bioorg Med Chem, 2015)

Tests used:
[1] = molecular target: T1, Nuclear receptor ROR-gamma (Mus musculus, UniProt P51450); test: Inverse agonist activity at RORgammat in mouse Th17 cells assessed as inhibition of IL-17 production after 3 days by ELISA; type: cell-based
T1 sequence (P51450 whole entry): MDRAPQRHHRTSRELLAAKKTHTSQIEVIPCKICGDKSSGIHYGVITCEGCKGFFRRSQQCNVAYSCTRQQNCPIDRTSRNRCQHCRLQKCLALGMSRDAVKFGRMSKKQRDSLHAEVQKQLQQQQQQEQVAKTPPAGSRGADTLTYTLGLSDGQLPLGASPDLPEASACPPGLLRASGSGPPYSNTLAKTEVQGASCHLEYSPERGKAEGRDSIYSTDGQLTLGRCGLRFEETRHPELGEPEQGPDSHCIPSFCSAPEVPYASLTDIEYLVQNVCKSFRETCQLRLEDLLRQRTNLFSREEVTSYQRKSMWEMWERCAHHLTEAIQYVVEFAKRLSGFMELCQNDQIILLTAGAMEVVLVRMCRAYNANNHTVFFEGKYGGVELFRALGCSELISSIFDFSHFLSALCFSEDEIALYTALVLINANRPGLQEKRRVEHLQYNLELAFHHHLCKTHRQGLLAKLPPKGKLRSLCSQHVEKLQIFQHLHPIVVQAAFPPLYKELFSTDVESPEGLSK

[2] = system: Liver; test: Intrinsic clearance in mouse liver microsomes at 0.5 microM by LC/MS/MS analysis; type: ADME
[3] = molecular target: T2, Nuclear receptor ROR-gamma (Homo sapiens, UniProt P51449); test: Inverse agonist activity at APC-labeled RORgammat-LBD (unknown origin) assessed as inhibition of N-(2-chloro-6-fluorobenzyl)-N-((2'-methoxy-[1,1'-biphenyl]-4-yl)-methyl)benzenesulfonamide-induced europium-labeled SRC1 recruitment after 1 hr by FRET analysis
T2 sequence (P51449 whole entry): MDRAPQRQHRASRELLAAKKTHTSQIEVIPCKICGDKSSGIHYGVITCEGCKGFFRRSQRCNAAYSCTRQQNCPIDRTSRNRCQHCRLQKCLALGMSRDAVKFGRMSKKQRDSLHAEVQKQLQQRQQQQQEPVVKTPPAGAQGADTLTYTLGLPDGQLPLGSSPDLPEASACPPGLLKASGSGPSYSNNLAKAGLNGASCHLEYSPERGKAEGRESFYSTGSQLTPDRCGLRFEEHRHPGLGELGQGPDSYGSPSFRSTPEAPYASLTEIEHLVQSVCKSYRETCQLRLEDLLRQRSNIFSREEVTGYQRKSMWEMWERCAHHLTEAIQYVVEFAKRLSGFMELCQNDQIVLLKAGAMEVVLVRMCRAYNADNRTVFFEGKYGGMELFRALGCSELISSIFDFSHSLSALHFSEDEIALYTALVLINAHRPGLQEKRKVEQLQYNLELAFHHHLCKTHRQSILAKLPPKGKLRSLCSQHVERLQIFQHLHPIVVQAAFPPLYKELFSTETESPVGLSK

[4] = molecular target: T2, Nuclear receptor ROR-gamma; test: Agonist activity at APC-labeled RORgammat-LBD (unknown origin) assessed as induction of europium-labeled SRC1 recruitment after 1 hr by dual FRET analysis

SMILES | IC50 [1] | CLH [2] | IC50 [3] | EC50 [4]
CCS(=O)(=O)c1ccc(CC(=O)Nc2nc(-c3ccccc3)c(Oc3ccccc3C(F)(F)F)s2)cc1 | 1000 nM | < 0.36 mL/min/g | – | –
CCS(=O)(=O)c1ccc(CC(=O)Nc2nc(-c3cccc(C#N)c3)c(Oc3ccc(C(F)(F)F)cc3Cl)s2)cc1 | 398 nM | < 0.36 mL/min/g | – | –
CCS(=O)(=O)c1ccc(CC(=O)Nc2nc(-c3cccc(C#N)c3)c(Oc3ccc(Cl)cc3C(F)(F)F)s2)cc1 | 158 nM | < 0.36 mL/min/g | – | –
CCS(=O)(=O)c1ccc(CC(=O)Nc2nc(-c3cccc(Cl)c3)c(Oc3ccccc3)s2)cc1 | 1580 nM | – | – | –
CCS(=O)(=O)c1ccc(CC(=O)Nc2nc(-c3cc(Cl)ccc3Cl)c(-c3ccccc3)s2)cc1 | – | – | 158 nM | 3160 nM
CCS(=O)(=O)c1ccc(CC(=O)Nc2nc(-c3ccccc3)c(Oc3ccc(Cl)cc3)s2)cc1 | 1580 nM | < 0.36 mL/min/g | – | –
CCS(=O)(=O)c1ccc(CC(=O)Nc2nc(-c3cccc(Cl)c3)c(Oc3ccccc3C(F)(F)F)s2)cc1 | 2000 nM | < 0.36 mL/min/g | – | –
CCS(=O)(=O)c1ccc(CC(=O)Nc2nc(-c3cccc(C#N)c3)c(Oc3ccccc3C(F)(F)F)s2)cc1 | 251 nM | < 0.36 mL/min/g | – | –
CCS(=O)(=O)c1ccc(CC(=O)Nc2nc(-c3ccccc3)c(Oc3ccccc3OC)s2)cc1 | 251 nM | 2.37 mL/min/g | – | –
CCS(=O)(=O)c1ccc(CC(=O)Nc2nc(-c3ccccc3)c(Oc3ccccc3Cl)s2)cc1 | 1580 nM | 0.46 mL/min/g | – | –
CCS(=O)(=O)c1ccc(CC(=O)Nc2nc(-c3ccccc3)c(Oc3ccc(OC)cc3)s2)cc1 | > 10000 nM | 0.39 mL/min/g | – | –
CCS(=O)(=O)c1ccc(CC(=O)Nc2nc(-c3ccccc3)c(Oc3ccc(C(F)(F)F)cc3)s2)cc1 | 631 nM | < 0.36 mL/min/g | – | –
CCS(=O)(=O)c1ccc(CC(=O)Nc2nc(-c3ccc(Cl)cc3)c(Oc3ccccc3)s2)cc1 | 3980 nM | < 0.36 mL/min/g | – | –
